The source of these data is US12503438B2, “Compounds for the treatment of kinase-dependent disorders” (Exelixis, Inc., priority 2019, dated 2025).

What all share (details): biochemical activity; 10 μM ATP
For one assay, the target named is KDR (Homo sapiens, UniProt P35968). Description: Human KDR kinase assay (33P-phosphoryl transfer radiometric, KinaseProfiler). The arrangement: Human KDR (residues K790-V1356, 55 nM); purchased Eurofins Pharma Discovery Services UK Limited (KinaseProfiler service). On the procedure:
(§1) Kinase activity and compound inhibition were investigated using the ^33P-Phosphoryl transfer radiometric kinase assay, performed using the KinaseProfiler™ service of Eurofins Pharma Discovery Services UK Limited. Dose-response experiments were performed using nine compound concentrations in a 96-well microtiter plate. For each assay, all compounds were prepared to a 50× final assay concentration (50 μM) in 100% DMSO, then diluted in a half-log series, with the final top concentration at 1 μM. This working stock of the compound was added to the assay well as the first component in the reaction, followed by the remaining components as detailed in the following assay protocols below. The positive control wells (100% kinase activity) contain all components of the reaction including 2% DMSO (control for solvent effects), except the compound of interest. Blank wells contain all components of the reaction, with the reference inhibitor, staurosporine. This reference compound was used to abolish kinase activity and generated the 0% kinase activity base-line. IC50 values were calculated by nonlinear regression analysis using the sigmoidal dose-response (variable slope) curve fit on XLFit version 5.3 (ID Business Solutions).
(§2) Human KDR (residues K790-V1356, 55 nM) was incubated with 8 mM MOPS pH 7.0, 0.2 mM EDTA, 0.33 mg/mL myelin basic protein, 10 mM magnesium acetate, and 10 μM [γ-^33P-ATP]. The reaction was initiated by the addition of the Mg/ATP mix. After incubation for 40 minutes at room temperature, the reaction was stopped by the addition of phosphoric acid to a concentration of 0.5%. A reaction aliquot of 10 μL was then spotted onto a P30 filtermat and washed four times for 4 minutes in 0.425% phosphoric acid and once in methanol prior to drying and scintillation counting. Incorporated ^33P was measured using the Wallac Microbeta scintillation counter (Perkin Elmer).

The next assay addresses T1, Human Mer (Homo sapiens, UniProt Q12866).
T1 construct: Human Mer (residues R557-E882 with H628Q and R794A, 0.7 nM); purchased Eurofins Pharma Discovery Services UK Limited (KinaseProfiler service)
T1 sequence (Q12866 557-882 limits assumed): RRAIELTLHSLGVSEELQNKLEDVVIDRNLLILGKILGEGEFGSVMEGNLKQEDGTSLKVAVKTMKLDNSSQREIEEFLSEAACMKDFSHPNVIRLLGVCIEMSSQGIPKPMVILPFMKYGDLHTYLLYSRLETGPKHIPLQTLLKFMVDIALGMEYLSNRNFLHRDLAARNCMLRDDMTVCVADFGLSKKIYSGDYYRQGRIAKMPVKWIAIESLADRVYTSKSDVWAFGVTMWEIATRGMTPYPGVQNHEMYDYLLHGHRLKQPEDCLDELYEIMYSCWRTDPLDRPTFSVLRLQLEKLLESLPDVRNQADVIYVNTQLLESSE
Nature of the assay: Human Mer kinase assay (33P-phosphoryl transfer radiometric, KinaseProfiler). On the procedure:
as §1
as §2, with “Mer” for “KDR”, “R557-E882 with H628Q and R794A, 0.7” for “K790-V1356, 55”, “30 mM NaCl, 250 μM GGMEDIYFEFMGGKKK,” for “0.33 mg/mL myelin basic protein,”, “acetate” for “acetate,”, “[y-^33P-ATP].” for “[γ-^33P-ATP].”

A further assay concerns the target T2, Human Axl (Homo sapiens, UniProt P30530, Q764R).
T2 construct: Human Axl (residues H473-A894 with Q764R, 161 nM); purchased Eurofins Pharma Discovery Services UK Limited (KinaseProfiler service)
T2 sequence (P30530 473-894 Q764R): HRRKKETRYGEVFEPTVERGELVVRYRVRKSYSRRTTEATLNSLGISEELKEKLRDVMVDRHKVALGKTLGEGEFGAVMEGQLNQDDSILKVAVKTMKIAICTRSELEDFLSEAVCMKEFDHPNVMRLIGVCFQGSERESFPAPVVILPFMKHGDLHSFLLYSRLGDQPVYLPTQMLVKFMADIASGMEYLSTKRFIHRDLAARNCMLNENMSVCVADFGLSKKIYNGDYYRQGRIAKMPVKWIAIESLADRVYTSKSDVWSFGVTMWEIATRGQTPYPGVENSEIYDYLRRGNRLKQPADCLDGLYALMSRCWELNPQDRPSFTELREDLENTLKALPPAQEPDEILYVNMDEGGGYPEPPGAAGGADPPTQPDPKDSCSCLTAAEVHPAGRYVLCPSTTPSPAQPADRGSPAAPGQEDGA
Description: Human AXL kinase assay (33P-phosphoryl transfer radiometric, KinaseProfiler). On the procedure:
as §1
as §2, with “Axl” for “KDR”, “H473-A894 with Q764R, 161” for “K790-V1356, 55”, “250 μM KKSRGDYMTMQIG,” for “0.33 mg/mL myelin basic protein,”, “[y-^33P-ATP].” for “[γ-^33P-ATP].”

Bounds are passed on as bounds.

Chain of KDR (P35968 790-1356): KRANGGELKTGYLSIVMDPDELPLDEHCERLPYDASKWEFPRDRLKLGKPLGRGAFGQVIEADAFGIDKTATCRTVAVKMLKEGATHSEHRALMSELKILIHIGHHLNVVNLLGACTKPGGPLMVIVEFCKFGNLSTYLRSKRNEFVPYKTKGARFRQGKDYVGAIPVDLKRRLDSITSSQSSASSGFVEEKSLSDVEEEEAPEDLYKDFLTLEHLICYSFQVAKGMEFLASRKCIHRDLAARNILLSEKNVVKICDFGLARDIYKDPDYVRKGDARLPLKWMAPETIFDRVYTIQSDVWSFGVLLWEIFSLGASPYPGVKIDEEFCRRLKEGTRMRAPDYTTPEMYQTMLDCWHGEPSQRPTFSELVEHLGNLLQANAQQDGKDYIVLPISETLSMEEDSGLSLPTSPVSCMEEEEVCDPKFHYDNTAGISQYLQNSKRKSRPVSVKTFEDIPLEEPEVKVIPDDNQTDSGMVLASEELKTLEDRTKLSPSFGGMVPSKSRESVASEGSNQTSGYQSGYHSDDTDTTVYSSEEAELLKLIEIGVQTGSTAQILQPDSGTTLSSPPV

Take `C#Cc1ccc2c(Oc3ccc(NC(=O)C4(C(=O)Nc5ccc(F)cc5)CC4)cc3)ccnc2c1` [Compound 64, 1-N-[4-(7-Ethynylquinolin-4-yl)oxyphenyl]-1-N′-(4-fluorophenyl)cyclopropane-1,1-dicarboxamide]: the IC50 against KDR, at Human Mer and at Human Axl was 10 to 100 nM each time.
`CC1Cc2cc(F)ccc2N1C(=O)C1(C(=O)Nc2ccc(Oc3ccnc4cc(-c5cnn(C)c5)ccc34)cc2)CC1` (stereo not drawn) [Compound 80, 1-(5-Fluoro-2-methyl-2,3-dihydroindole-1-carbonyl)-N-[4-[7-(1-methylpyrazol-4-yl)quinolin-4-yl]oxyphenyl]cyclopropane-1-carboxamide]: the half-inhibitory concentration (IC50) (usually the concentration that gives 50% inhibition) at KDR fell in the range of 100 to 1000 nM; at Human Mer, 100 to 1000 nM; against Human Axl, 10 to 100 nM.
`Cn1cnc(-c2ccc3c(Oc4ccc(NC(=O)C5(C(=O)Nc6ccc(F)cc6)CC5)cc4)ccnc3c2)c1` [Compound 69, 1-N′-(4-Fluorophenyl)-1-N-[4-[7-(1-methylimidazol-4-yl)quinolin-4-yl]oxyphenyl]cyclopropane-1,1-dicarboxamide]: the figures for the concentration for half-maximal inhibition (IC50) against KDR, at Human Mer and against Human Axl were 10 to 100 nM, at most 10 nM and at most 10 nM, respectively.
On to `O=C(Nc1ccc(F)cc1)C1(C(=O)Nc2ccc(Oc3ccnc4cc(-c5ccnnc5)ccc34)cc2)CC1` [Compound 28, 1-N′-(4-Fluorophenyl)-1-N-[4-(7-pyridazin-4-ylquinolin-4-yl)oxyphenyl]cyclopropane-1,1-dicarboxamide], for which the concentration for half-maximal inhibition (IC50) at KDR was 10 to 100 nM; on Human Mer, at most 10 nM; against Human Axl it was 10 to 100 nM.
Take `O=C(Nc1ccc(F)cc1)C1(C(=O)Nc2ccc(Oc3ccnc4cc(-c5ncco5)ccc34)cc2)CC1` [Compound 66, 1-N′-(4-Fluorophenyl)-1-N-[4-[7-(1,3-oxazol-2-yl)quinolin-4-yl]oxyphenyl]cyclopropane-1,1-dicarboxamide]: the results for the IC50 against KDR, against Human Mer and at Human Axl were 10 to 100 nM, at most 10 nM and 10 to 100 nM, respectively.
Turning to `Cn1ccnc1-c1ccc2c(Oc3ccc(NC(=O)C4(C(=O)Nc5ccc(F)cc5)CC4)cc3)ccnc2c1` [Compound 75, 1-N′-(4-Fluorophenyl)-1-N-[4-[7-(1-methylimidazol-2-yl)quinolin-4-yl]oxyphenyl]cyclopropane-1,1-dicarboxamide], the results for the IC50 on KDR, at Human Mer and against Human Axl were 10 to 100 nM, at most 10 nM and 10 to 100 nM, respectively.
For the molecule `O=C(Nc1ccc(F)cc1)C1(C(=O)Nc2ccc(Oc3ccnc4cc(-c5cnn(C6COC6)c5)ccc34)cc2)CC1` [Compound 24, 1-N′-(4-Fluorophenyl)-1-N-[4-[7-[1-(oxetan-3-yl)pyrazol-4-yl]quinolin-4-yl]oxyphenyl]cyclopropane-1,1-dicarboxamide], the IC50 is 10 to 100 nM on KDR, at most 10 nM at Human Mer and at most 10 nM against Human Axl.
On to `O=C(Nc1ccc(F)cc1)C1(C(=O)Nc2ccc(Oc3ccnc4cc(-c5ccn(C(F)F)n5)ccc34)cc2)CC1` [Compound 84, 1-N-[4-[7-[1-(Difluoromethyl)pyrazol-3-yl]quinolin-4-yl]oxyphenyl]-1-N′-(4-fluorophenyl)cyclopropane-1,1-dicarboxamide], for which the values for the IC50 on KDR, on Human Mer and at Human Axl were 10 to 100 nM, at most 10 nM and 10 to 100 nM, respectively.
`O=C(Nc1ccc(F)cc1)C1(C(=O)Nc2ccc(Oc3ccnc4cc(-c5cnn(CCN6CCOCC6)c5)ccc34)cc2)CC1` [Compound 19, 1-N′-(4-Fluorophenyl)-1-N-[4-[7-[1-(2-morpholin-4-ylethyl)pyrazol-4-yl]quinolin-4-yl]oxyphenyl]cyclopropane-1,1-dicarboxamide]: the values for the IC50 against KDR, on Human Mer and at Human Axl were 10 to 100 nM, at most 10 nM and at most 10 nM, respectively.
Regarding `O=C(Nc1ccc(F)cc1)C1(C(=O)Nc2ccc(Oc3ccnc4cc(-c5cncnc5)ccc34)cc2)CC1` [Compound 27, 1-N′-(4-Fluorophenyl)-1-N-[4-(7-pyrimidin-5-ylquinolin-4-yl)oxyphenyl]cyclopropane-1,1-dicarboxamide], the IC50 against KDR, against Human Mer and against Human Axl was at most 10 nM in each case.
In the case of `O=C(Nc1ccc(F)cc1)C1(C(=O)Nc2ccc(Oc3ccnc4cc(-c5cccnc5)ccc34)cc2)CC1` [Compound 25, 1-N′-(4-Fluorophenyl)-1-N-[4-(7-pyridin-3-ylquinolin-4-yl)oxyphenyl]cyclopropane-1,1-dicarboxamide], the 50% inhibitory concentration (IC50) was 10 to 100 nM against KDR, at most 10 nM on Human Mer and 10 to 100 nM against Human Axl.
On to `O=C(Nc1ccc(F)cc1)C1(C(=O)Nc2ccc(Oc3ccnc4cc(-c5cnn(CCF)c5)ccc34)cc2)CC1` [Compound 14, 1-N-[4-[7-[1-(2-Fluoroethyl)pyrazol-4-yl]quinolin-4-yl]oxyphenyl]-1-N′-(4-fluorophenyl)cyclopropane-1,1-dicarboxamide], for which the concentration for half-maximal inhibition (IC50) against KDR is 10 to 100 nM; against Human Mer it was at most 10 nM; against Human Axl it was at most 10 nM.
`O=C(Nc1ccc(F)cc1)C1(C(=O)Nc2ccc(Oc3ccnc4cc(-c5ccn[nH]5)ccc34)cc2)CC1` [Compound 68, 1-N′-(4-Fluorophenyl)-1-N-[4-[7-(1H-pyrazol-5-yl)quinolin-4-yl]oxyphenyl]cyclopropane-1,1-dicarboxamide]: the IC50 against KDR was 10 to 100 nM; against Human Mer, at most 10 nM; against Human Axl it was 10 to 100 nM.
For the molecule `COc1cc2c(Oc3ccc(NC(=O)C4(C(=O)Nc5ccc(F)cc5)CC4)cc3)ccnc2cc1-c1cnn(C)c1` [Compound 76, 1-N′-(4-Fluorophenyl)-1-N-[4-[6-methoxy-7-(1-methylpyrazol-4-yl)quinolin-4-yl]oxyphenyl]cyclopropane-1,1-dicarboxamide], the figures for the half-inhibitory concentration (IC50) against KDR, at Human Mer and on Human Axl were 10 to 100 nM, at most 10 nM and at most 10 nM, respectively.
With `O=C(Nc1ccc(F)cc1)C1(C(=O)Nc2ccc(Oc3ccnc4cc(-c5ccncc5)ccc34)cc2)CC1` [Compound 26, 1-N′-(4-Fluorophenyl)-1-N-[4-(7-pyridin-4-ylquinolin-4-yl)oxyphenyl]cyclopropane-1,1-dicarboxamide], the IC50 at KDR is 10 to 100 nM; on Human Mer, at most 10 nM; against Human Axl, 10 to 100 nM.
As for `O=C(Nc1ccc(F)cc1)C1(C(=O)Nc2ccc(Oc3ccnc4cc(-c5cnoc5)ccc34)cc2)CC1` [Compound 57, 1-N′-(4-Fluorophenyl)-1-N-[4-[7-(1,2-oxazol-4-yl)quinolin-4-yl]oxyphenyl]cyclopropane-1,1-dicarboxamide], the IC50 is 10 to 100 nM against KDR, at most 10 nM on Human Mer and at most 10 nM on Human Axl.
